This is an account of results in patent US6048840A, “Hypoglycaemic peptides” (Monash University, priority 1987, dated 2000).

Non-standard residues stand in square brackets, D forms with d. No end group written: not given here.

Assay [1] concerns cultured muscle cells (L6 rat skeletal muscle cell line). Put plainly: Cultured cell assay for stimulation of glucose uptake. Format: cell-based. As to conditions: peptide 10 μg/ml. The text has this:
(§1) In these assays collagenase-dispersed rat adipocytes, cultured muscle cells (L6 rat skeletal muscle cell line) and hemidiaphragm preparations were employed.
(§2) The effect of the β imide form peptides on glucose metabolism is further shown by their ability to stimulate glucose uptake and glycogen synthesis by cultured muscle cells and isolated rat hemidiaphragms.

Assay [2] relates to isolated rat hemidiaphragms. Put plainly: Isolated muscle assay for stimulation of glycogen synthesis. Format: cell-based. As to conditions: peptide 100 μg/ml.
Source text: as §1, §2

Another assay deals with rats. Put plainly: Change in blood glucose level in rats following intravenous injection of peptides. Format: in vivo, rat. The text has this: (i) Effect on basal blood glucose levels
Values are changes (means ±SEM) of blood glucose from the basal level (4.0-4.4 mmol glucose/l) at time 0. Differences between the control and test groups were statistically evaluated according to Student's t-test. N.S. indicates 2P>0.05.

As for CYLSRLFDNA [Pep P168], in assay [1], the “Rate of Increase from Basal (glucose uptake)” value turned out to be 4.0 μmol glucose/hour.
On to CYLSRLFDNA [Pep P202], for which the “Rate of Increase from Basal (glucose uptake)” value in assay [1] was 1.9 μmol glucose/hour. Also, in assay [2], the “Rate of Increase from Basal (glycogen synthesis)” value stood at 0.44 μmol glycogen/g tissue/h.
Regarding CYLSRLFDNN [Pep P197], in assay [2], the “Rate of Increase from Basal (glycogen synthesis)” value was determined as 0.17 μmol glycogen/g tissue/h.
In the case of LSKLFDNA [Pep P090], the “Rate of Increase from Basal (glycogen synthesis)” value in assay [2] is recorded as 0.16 μmol glycogen/g tissue/h.
On to LSRIFDNA [Pep P087], for which the “Rate of Increase from Basal (glycogen synthesis)” value in assay [2] is 0.36 μmol glycogen/g tissue/h.
Regarding “LSRLFDNA [Pep P051, b240 implies β imide form]”, the “Rate of Increase from Basal (glucose uptake)” value in assay [1] came out at 3.3 μmol glucose/hour. In assay [2], the “Rate of Increase from Basal (glycogen synthesis)” value was 0.74 μmol glycogen/g tissue/h.
For the substance LSRLFDNAG [Pep P063], in assay [1], the “Rate of Increase from Basal (glucose uptake)” value was found to be 1.9 μmol glucose/hour.
On to LSRLFDQA [Pep P076], for which the “Rate of Increase from Basal (glycogen synthesis)” value in assay [2] worked out at 0.30 μmol glycogen/g tissue/h.
The same measure, in the same setting: the same measure for LSRLHDNA [Pep P078]: 0.11 μmol glycogen/g tissue/h.
Consider LSRL[dF]DNA [Pep P057], for which the “Rate of Increase from Basal (glucose uptake)” value in assay [1] is 2.0 μmol glucose/hour.
On to LSRVFDNA [Pep P086], for which the “Rate of Increase from Basal (glucose uptake)” value in assay [1] was 4.9 μmol glucose/hour.
“Pep (6-15): α-form synthetic peptide equivalent to hGH residues 6-15 (LSRLFDNAML; Somatotropin; UniProt P01241 32-41, looked up, fragment)” registered a Difference from control means with rats (i.v., peptide 0.5 μmol/100 g, control decrease 1.05) of 0.21 mmol/L. In addition, the “Hypoglycaemic effect / activity in words” value with rats (intravenous injection of peptide) is “active only in the β imide form”. Moreover, the “Decrease in blood glucose from basal levels” value in the assay with rats (intravenous injection, peptide 0.5 μmol/100 g, basal level 4.0-4.4 mmol glucose/l at time 0) was determined as 1.26 mmol glucose/l.
Take “SRLFDNA [Pep P015, synthetic peptide; b240 implies β imide form]”: the “Rate of Increase from Basal (glucose uptake)” value in assay [1] worked out at 1.5 μmol glucose/hour.
